Assay results as given in patent publication US10036036B1, “Compositions and methods for deploying a transgenic refuge as a seed blend” (priority 2007, dated 2018).

System: western and northern corn rootworm
Assay: Field trial (Example 3): corn rootworm damage by Iowa class, percent of control and synergy threshold
Assay type: in vivo
Description: A field trial was established and completed in accordance with pertinent protocols and in conformance with USDA notification requirements. The purpose of the trial was to determine the efficacy of transgenic event Cry3Bb.11231 in corn seed in combination with corn rootworm seed treatments using imidacloprid.
All seed treatments with pesticides were carried out as described in Example 1. In seed treatment number 1 and 2, Gaucho® was used for wire worm protection, but at levels sufficiently low that it would be expected to have no effect on corn rootworms (i.e., at a treatment level of about 60 gm of active/100 kg seed or 0.16 mg active/kernel), otherwise, seed receiving treatment number 2 had only transgenic event Cry3Bb.11231 and no pesticide treatment that would be expected to be effective against corn rootworm.
For seeds having treatments numbered 3 through 5, the pesticides were applied by the methods described in Example 1. For seeds having treatment numbers 6 and 7, commercially available Force® 3 G and Lorsban® 15 G were applied to the soil in a 5″ band at the time of sowing. The levels of application are as shown and are within the ranges recommended for standard commercial practice.
Corn seeds to be tested were planted and grown at four different locations across several Midwestern states in the United States corn belt according to the protocol described above.
The determination of damage by corn root worm was made according to the protocol described in Example 2.
The combination of imidacloprid seed treatment with corn seed having a Cry3Bb.11231 transgenic event was tested for possible synergy at a level of rootworm damage of 3-6. In the first test, shown in Table 2, the percentage of test plants having damage levels of from 3 to 6, on the Iowa 1-6 Scale, was determined for the control and for seeds treated with the pesticide at two levels, and for seeds having the transgenic event, alone and in combination. The following formula was then used to calculate a “synergy threshold”: (% of control Cry3Bb.11231)*(% of control imidacloprid treatment)/100.
This threshold was compared against the percent of control for the treatment combination (i.e., Cry3Bb.11231 with imidacloprid @ 400 gm/100 kg). If the treatment combination percent of control was below the threshold, then it was concluded that there was synergy.
It was believed that the measurement of rootworm damage at higher damage levels (i.e., levels 3-6) is a useful indicator that correlates with subsequent yield loss due to such damage. The reason for this is that rootworm damage at levels 1 and 2 seldom causes corn plants to fall over and lodge, and such minimal root loss is not believed to reduce the number or weight of kernels per ear. However, root damage at levels of 3 and above increasingly causes lodging and loss of yield. Therefore, it is believed that the summed damage levels of 3-6 (and in some cases, 4-6 and 5 and 6), provides a useful indication of the effect of corn rootworm damage on subsequent corn yield.

In the case of `O=[N+]([O-])NC1=NCCN1Cc1ccc(Cl)nc1` [Imidacloprid, 1-[(6-chloro-3-pyridinyl)methol]-N-nitro-2-imidazolidinimime], the “PERCENT OF CONTROL” value (Table 2, plants with damage levels 3-6 relative to isohybrid control) is reported as 80.5%, the “NUMBER OF PLANTS HAVING 3-6 DAMAGE LEVEL” value (Table 3, damage levels 3-6 on Iowa 1-6 scale) is reported as 71.7 and the “PERCENT OF CONTROL” value (Table 3, damage levels 3-6 relative to untreated control) is reported as 80.5%. For the same molecule, the “CORN ROOTWORM DAMAGE IN EACH IOWA CLASS (IOWA 1-6 SCALE): 1” value (count of plants in Iowa class 1) was 3, the “CORN ROOTWORM DAMAGE IN EACH IOWA CLASS (IOWA 1-6 SCALE): 2” value (count of plants in Iowa class 2) was 15 and the “CORN ROOTWORM DAMAGE IN EACH IOWA CLASS (IOWA 1-6 SCALE): 3” value (count of plants in Iowa class 3) was 36. The “CORN ROOTWORM DAMAGE IN EACH IOWA CLASS (IOWA 1-6 SCALE): 4” value (count of plants in Iowa class 4) was 21, the “CORN ROOTWORM DAMAGE IN EACH IOWA CLASS (IOWA 1-6 SCALE): 5” value (count of plants in Iowa class 5) was 5 and the “CORN ROOTWORM DAMAGE IN EACH IOWA CLASS (IOWA 1-6 SCALE): 6” value (count of plants in Iowa class 6) was 0.
